# Assay results from ChEMBL document CHEMBL6114943, “Engineered Cyclotide Blocks Neuronal Excitotoxicity” (J Med Chem, 2025).
# Calls of active or inactive are those of the source. No cut-off for these calls is given here. Where a SMILES comes first, the peptide text is derived from it. Bridges are numbered along the chain shown (N, C = ends).
# Tests used:
# [1] = Drug uptake in mouse Primary neuron at 100 nM measured at 20 mins by inverted confocal microscopic analysis; format: ADME, cell-based; details: 0.1 µM
# [2] = test system: Neuron; assay: Cytotoxicity against mouse primary neuron upto 1 uM incubated for 24 hrs; format: toxicity, cell-based
# [3] = test system: Neuron; assay: Neuroprotective activity against NMDA-induced cell death in mouse primary neuron assessed as cell viability preincubated with compound for 1 hrs followed by NMDA addition and measured after 1 hrs by PI staining based analysis relative to control; format: functional; details: time 2 hrs
# [4] = test system: Neuron; assay: Neuroprotective activity against NMDA-induced cell death in mouse primary neuron assessed as reduction in cell viability at 100 nM preincubated with compound for 1 hrs followed by NMDA addition and measured after 1 hrs by PI staining based analysis (reference value: 60.01 +/- 4%); format: functional; details: time 2 hrs
# [5] = test system: Neuron; assay: Neuroprotective activity against Amyloid beta-induced cell death in mouse primary neuron assessed as cell viability preincubated with compound for 1 hrs followed by Amyloid beta addition and measured after 1 hrs by PI staining based analysis relative to control; format: functional; details: time 2 hrs
# [6] = test system: Neuron; assay: Neuroprotective activity against NMDA-induced cell death in mouse primary neuron assessed as cell viability at 10 nM preincubated with compound for 1 hrs followed by NMDA addition and measured after 1 hrs by PI staining based analysis relative to control; format: functional; details: time 2 hrs, read-out: Activity
# [7] = test system: Neuron; assay: Neuroprotective activity against NMDA-induced cell death in mouse primary neuron assessed as cell viability at 1 nM preincubated with compound for 1 hrs followed by NMDA addition and measured after 1 hrs by PI staining based analysis relative to control; format: functional; details: time 2 hrs, read-out: Activity
# [8] = test system: Neuron; assay: Neuroprotective activity against Amyloid beta-induced cell death in mouse primary neuron assessed as cell viability at 100 nM preincubated with compound for 1 hrs followed by Amyloid beta addition and measured after 1 hrs by PI staining based analysis; format: functional; details: time 2.0 hrs
# [9] = target: Disks large homolog 4 (Homo sapiens, UniProt P78352); assay: Binding affinity to PSD-95 (unknown origin) assessed as binding constant (Kd) by MST analysis
# Disks large homolog 4, sequence (P78352 whole entry): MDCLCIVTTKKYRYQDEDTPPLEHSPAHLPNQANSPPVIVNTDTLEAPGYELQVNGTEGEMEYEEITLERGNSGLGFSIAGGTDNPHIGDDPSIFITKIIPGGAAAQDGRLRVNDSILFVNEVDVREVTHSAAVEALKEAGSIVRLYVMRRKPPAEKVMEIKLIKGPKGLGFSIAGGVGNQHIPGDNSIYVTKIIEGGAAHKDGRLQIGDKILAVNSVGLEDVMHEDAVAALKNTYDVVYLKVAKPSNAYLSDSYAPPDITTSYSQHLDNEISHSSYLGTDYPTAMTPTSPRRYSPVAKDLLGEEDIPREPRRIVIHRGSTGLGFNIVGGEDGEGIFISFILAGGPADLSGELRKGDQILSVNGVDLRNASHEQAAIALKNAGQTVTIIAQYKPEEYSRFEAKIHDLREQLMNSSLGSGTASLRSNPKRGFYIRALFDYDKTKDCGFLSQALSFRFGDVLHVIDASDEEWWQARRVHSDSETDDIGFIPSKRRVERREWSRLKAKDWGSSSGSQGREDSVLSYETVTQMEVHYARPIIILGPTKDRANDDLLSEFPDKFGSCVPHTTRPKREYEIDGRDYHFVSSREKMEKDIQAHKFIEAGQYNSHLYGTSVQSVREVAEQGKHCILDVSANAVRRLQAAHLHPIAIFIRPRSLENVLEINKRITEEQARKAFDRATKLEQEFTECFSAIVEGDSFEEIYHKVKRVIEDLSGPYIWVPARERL
# [10] = test system: Neuron; assay: Neuroprotective activity against Amyloid beta-induced cell death in mouse primary neuron assessed as cell viability at 0.1 nM preincubated with compound for 1 hrs followed by Amyloid beta addition and measured after 1 hrs by PI staining based analysis; format: functional
# [11] = Toxicity in C57BL/6 mouse assessed as change in alanine transaminase level at 3 nmol/g, iv administered 3 consecutive days; format: organism-based; details: in vivo
# [12] = Toxicity in C57BL/6 mouse assessed as histological changes in kidney at 3 nmol/g, iv administered 3 consecutive days by H and E staining based analysis; format: organism-based; details: in vivo
# [13] = Toxicity in C57BL/6 mouse assessed as histological changes in liver at 3 nmol/g, iv administered 3 consecutive days by H and E staining based analysis; format: organism-based; details: in vivo
# [14] = Toxicity in C57BL/6 mouse assessed as histological changes in lung at 3 nmol/g, iv administered 3 consecutive days by H and E staining based analysis; format: organism-based; details: in vivo
# [15] = Toxicity in C57BL/6 mouse assessed as histological changes in spleen at 3 nmol/g, iv administered 3 consecutive days by H and E staining based analysis; format: organism-based; details: in vivo
# [16] = test system: Mus musculus; assay: Neuroprotective activity against pilocarpine-induced seizure in C57BL6 mouse assessed as survival rate at 3 nmol/g, iv pretreated with compound for 1 hrs followed by pilocarpine induction and measured after 2 hrs relative to control; format: functional; details: time 3 hrs
# [17] = test system: Mus musculus; assay: Neuroprotective activity against pilocarpine-induced seizure in C57BL6 mouse assessed as reduction in seizure severity at 3 nmol/g, iv pretreated with compound for 1 hrs followed by pilocarpine induction and measured after 2 hrs; format: functional, organism-based; details: time 3.0 hrs
# [18] = test system: Mus musculus; assay: Neuroprotective activity against pilocarpine-induced seizure in C57BL6 mouse assessed as survival rate at 30 nmol/g, po pretreated with compound for 1 hrs followed by pilocarpine induction and measured after 2 hrs relative to control; format: functional; details: time 3 hrs
# [19] = test system: Mus musculus; assay: Neuroprotective activity against pilocarpine-induced seizure in C57BL6 mouse assessed as reduction in seizure severity at 30 nmol/g, po pretreated with compound for 1 hrs followed by pilocarpine induction and measured after 2 hrs; format: functional, organism-based; details: time 3.0 hrs
# [20] = Biodistribution in C57BL/6 mouse brain at 3 nmol/g, iv measured after 90 mins post injection using Cy7 labelled compound by fluorescence based analysis; format: ADME, organism-based; details: in vivo, 1.5 h
# [21] = Biodistribution in C57BL/6 mouse heart at 3 nmol/g, iv measured after 90 mins post injection using Cy7 labelled compound by fluorescence based analysis; format: ADME, organism-based; details: in vivo, 1.5 h
# [22] = Biodistribution in C57BL/6 mouse kidney at 3 nmol/g, iv measured after 90 mins post injection using Cy7 labelled compound by fluorescence based analysis; format: ADME, organism-based; details: in vivo, 1.5 h
# [23] = Biodistribution in C57BL/6 mouse liver at 3 nmol/g, iv measured after 90 mins post injection using Cy7 labelled compound by fluorescence based analysis; format: ADME, organism-based; details: in vivo, 1.5 h
# [24] = Biodistribution in C57BL/6 mouse lung at 3 nmol/g, iv measured after 90 mins post injection using Cy7 labelled compound by fluorescence based analysis; format: ADME, organism-based; details: in vivo, 1.5 h
# [25] = Biodistribution in C57BL/6 mouse spleen at 3 nmol/g, iv measured after 90 mins post injection using Cy7 labelled compound by fluorescence based analysis; format: ADME, organism-based; details: in vivo, 1.5 h
# [26] = Biodistribution in C57BL/6 mouse spleen at 3 nmol/g, iv measured after 24 hrs post injection using Cy7 labelled compound by fluorescence based analysis; format: ADME, organism-based; details: in vivo
# [27] = Biodistribution in C57BL/6 mouse lung at 3 nmol/g, iv measured after 24 hrs post injection using Cy7 labelled compound by fluorescence based analysis; format: ADME, organism-based; details: in vivo
structure (smiles),measurement,setting,value
"CC[C@H](C)[C@@H]1NC(=O)[C@@H]2CSSC[C@@H]3NC(=O)[C@H](C(C)C)NC(=O)[C@H](CC(=O)O)NC(=O)[C@H](CO)NC(=O)[C@H](CCC(=O)O)NC(=O)[C@H]([C@@H](C)CC)NC(=O)[C@H](CO)NC(=O)[C@H](CO)NC(=O)[C@H](CC(C)C)NC(=O)[C@H](CCCCN)NC(=O)[C@@H]4CSSC[C@H](NC(=O)[C@H](CC(=O)O)NC(=O)[C@H](CO)NC(=O)[C@H](CC(=O)O)NC(=O)[C@H](CCCNC(=N)N)NC(=O)[C@H](CCCNC(=N)N)NC(=O)[C@H](CSSC[C@H](NC1=O)C(=O)N[C@@H](CCCNC(=N)N)C(=O)NCC(=O)N[C@@H](CC(N)=O)C(=O)NCC(=O)N[C@@H](Cc1ccc(O)cc1)C(=O)N4)NC(=O)[C@H](CCCNC(=N)N)NC(=O)[C@H](CCCNC(=N)N)NC(=O)[C@H](CCCNC(=N)N)NC(=O)[C@H](CCCNC(=N)N)NC(=O)[C@H](CC(C)C)NC(=O)[C@H]([C@@H](C)CC)NC(=O)[C@H](CCCNC(=N)N)NC(=O)[C@@H]1CCCN1C3=O)C(=O)N1CCC[C@H]1C(=O)NCC(=O)N[C@@H](C)C(=O)N2 (cyclo(ACICRGNGYCKLSSIESDVCPRILRRRRCRRDSDCPG); disulfide 2-20, 4-29, 10-35)",Drug uptake,[1],Active
same,Activity,[2],Non-toxic
same,Activity,[3],18.2%
same,Activity,[4],8.56%
same,Activity,[5],20.9%
same,viability at 0.01 µM,[6],22.4%
same,viability at 0.001 µM,[7],39.8%
same,Activity,[8],Active
same,Kd,[9],1800 nM
same,Activity,[10],Active
same,Activity,[11],Toxic
same,Activity,[12],Non-toxic
same,Activity,[13],Non-toxic
same,Activity,[14],Non-toxic
same,Activity,[15],Non-toxic
same,Survival,[16],75%
same,Activity,[17],Active
same,Survival,[18],50%
same,Activity,[19],Not active; Slightly Lower Seizure Severity
same,Drug uptake,[20],Active
same,Drug uptake,[21],Active
same,Drug uptake,[22],Active
same,Drug uptake,[23],Active
same,Drug uptake,[24],Active
same,Drug uptake,[25],Active
same,Drug uptake,[26],Not_active
same,Drug uptake,[27],Active
